What all share (format): cell-based
In one assay the test system is MCF-7. The experiment in a line: CellTiter-Glo cell proliferation inhibition, MCF-7 (Effect Example 2). As to conditions: Homo sapiens, MCF7, 144 h, MCF-7 (CTG), 6 days, starting concentration 10 μM; for inhibition at up to 10 µM: read-out: IH % max (maximum inhibition percentage). An outline of the steps:
(§1)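 MCF-7, TamR-MCF-7, and CRISPR-edited MCF-7 ER D538G or Y537S cells were seeded at 1,000 or 2,000 cells/well in EMEM and cultured 24 h. They were then exposed to a 4-fold, 10-point series (top 10 µM before addition to wells) for 6 days or 72 h at 37 °C. CellTiter-Glo luminescence gave IC50 and maximum % inhibition.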

For another assay, the system named is TamR-MCF-7. The experiment in a line: CellTiter-Glo cell proliferation inhibition, TamR-MCF-7. The following applies: 144 h, TamR-MCF-7 (CTG), 6 days, starting concentration 10 μM; for inhibition at up to 10 µM: read-out: IH % max (maximum inhibition percentage). Summed up:
as §1

In a further assay the test system is MCF-7 ER^D538G. The experiment in a line: CellTiter-Glo cell proliferation inhibition, MCF-7 ER^D538G. As to conditions: Homo sapiens, MCF7, 144 h, MCF-7 ER^D538G (CTG), 6 days, starting concentration 10 μM; for inhibition at up to 10 µM: read-out: IH % max (maximum inhibition percentage). Summed up:
as §1

A further assay concerns MCF-7 ER^Y537S. In words: CellTiter-Glo cell proliferation inhibition, MCF-7 ER^Y537S. As to conditions: Homo sapiens, MCF7, 144 h; MCF-7 ER^Y537S (CTG), 6 days, starting concentration 10 μM; read-out: IH % max (maximum inhibition percentage). Summed up: as §1
The next assay concerns MDA-MB-231. In words: CellTiter-Glo cell proliferation inhibition, MDA-MB-231. As to conditions: Homo sapiens, 144 h, MDA-MB-231 (CTG), 6 days, starting concentration 10 μM; for inhibition at up to 10 µM: read-out: IH % max (maximum inhibition percentage). An excerpt:
1. Cell line • (1) Breast cancer cell lines and their culture media: • MCF-7 (ATCC; Cat. No.: HTB-22), a Luminal A breast cancer cell; • TamR-MCF-7 (ATCC; Cat. No.: CRL-3435), a breast cancer cell; • MCF-7 ER^D538G: a Luminal A breast cancer cell obtained by constructing MCF-7 (ATCC; Cat. No.: HTB-22) using CRISPR-Cas9 gene editing technology; • MCF-7 ER^Y537S: a Luminal A breast cancer cell obtained by constructing MCF-7 (ATCC; Cat. No.: HTB-22) using CRISPR-Cas9 gene editing technology; • MDA-MB-231: (manufacturer: Nanjing CoBioer Biosciences Co., Ltd.), a triple-negative breast cancer cell; • MDA-MB-468: (manufacturer: Nanjing CoBioer Biosciences Co., Ltd.), a triple-negative breast cancer cell.
Herein, the culture medium of MCF-7, TamR-MCF-7, MCF-7 ER^D538G, and MCF-7 ER^Y537S was EMEM; • the culture medium of MDA-MB-231 and MDA-MB-468 was DMEM.
2. Reagents • Culture medium EMEM (Gibco, 1964507) • Culture medium DMEM (Gibco, 12430-054) • Fetal bovine serum (Gibco, 10091148) • Penicillin-streptomycin double antibody (Gibco, S110JV) • DPBS (Gibco, 14190-144) • CellTiter-Glo® assay kit (Promega, G7573) • Trypsin (0.25%) (Gibco, 25200-056) • DMSO (Sigma, D2650)
3. Instruments • Biosafety cabinet (AIRTECH, BSC-1300A II) • Automated cell counter (Life Technologies, countess II) • Multifunctional microplate reader (Biotek, H1FM) • Orbital shaker (Hangzhou Allsheng Instruments Co., Ltd., OS-100) • XLFIT 5.3 (Inforstack Shanghai Co., Ltd.)
For this test method, the following experiments were performed in a biosafety cabinet, with the specific steps as follows: • (1) Cells were inoculated in a 96-well plate. One day later, the previous culture medium was poured off, 5 mL of DPBS was added to wash the cells, and then DPBS was pipetted and discarded. An appropriate amount of trypsin was then added. The plate was digested in a 37° C., 5% CO2 cell incubator for about 2 to 5 minutes and then taken out. Anew corresponding culture medium was added, and pipetted up and down to resuspend the cells evenly. The cells were then counted using an automated cell counter. • (2) Each cell was inoculated in columns 1 to 11 of a 96-well plate (Corning, Cat. No.: 3610) at a density of 1,000 or 2,000 cells per well in 100 μL of culture medium, and 100 μL of the corresponding culture medium without cells was added to the wells in column 12. The plate was then placed in a 37° C., 5% CO2 incubator for 24 hours. • (3) The compound of the present disclosure and the control drug fulvestrant (Selleck; Cat. No.: S1191) were then 4-fold serially diluted to 10 dose points starting at 10 μM. 10 μL of the serially diluted compound was pipetted and added to 100 μL of cells in columns 1 to 10, and 10 μL of the corresponding culture medium containing 0.33 v % DMSO was added to both columns 11 and 12. The plate was incubated in a 37° C., 5% CO2 incubator for 6 days or 72 hours (Note: column 11 was used as a MAX well with cells but without compound; column 12 was used as a MIN well without cells […]). • (4) The cell viability detection reagent in the CellTiter-Glo® assay kit was then added to the 96-well plate at 50 μL per well according to the instructions, and shaken on an orbital shaker in the dark for 5 to 10 minutes. The cell viability was then measured using a multifunctional microplate reader. Finally, the inhibition of cell proliferation by the compound of the present disclosure was plotted by XLFIT software, and the IC50 value (half inhibitory concentration) and the IH % max (maximum inhibition percentage) of the compound of the present disclosure were calculated.
Compounds D64 to D69 were tested for MDA-MB-231 (CTG) and MDA-MB-468 (CTG) with an incubation time of 72 hours in the incubator.

Another assay concerns MDA-MB-468. The experiment in a line: CellTiter-Glo cell proliferation inhibition, MDA-MB-468. As to conditions: Homo sapiens, 144 h, MDA-MB-468 (CTG), 6 days, starting concentration 10 μM; for inhibition at up to 10 µM: read-out: IH % max (maximum inhibition percentage).

As to `CCN(CCOCCOc1ccc2c(c1)C(=O)N(C1CCC(=O)NC1=O)C2=O)CCOc1ccc(Oc2c(-c3ccc(S(C)(=O)=O)cc3)ccc3cc(O)ccc23)cc1` (centres unmarked) [Compound D23, 2-(2,6-dioxopiperidin-3-yl)-5-(2-(2-(ethyl(2-(4-((6-hydroxy-2-(4-(methylsulfonyl)phenyl)naphthalen-1-yl)oxy)phenoxy)ethyl)amino)ethoxy)ethoxy)isoindoline-1,3-dione], the inhibition at up to 10 µM with MCF-7 was found to be 73%; in the assay with TamR-MCF-7, 64%; with MCF-7 ER^D538G, 94%; in the assay on MCF-7 ER^Y537S, 96%; with MDA-MB-231, 100%; in the assay with MDA-MB-468 it was 79%. In the assay with MCF-7 ER^D538G, this compound came in with a concentration for half-maximal inhibition (IC50) of 230 nM.

In the case of `CCN(CCOc1ccc(Oc2c(-c3ccc(S(C)(=O)=O)cc3)ccc3cc(O)ccc23)cc1)C(=O)c1ccc(CCC2CCN(C3CCN(c4cccc5c4C(=O)N(C4CCC(=O)NC4=O)C5=O)CC3)CC2)cc1` (centres unmarked) [Compound D33, 4-(2-(1′-(2-(2,6-dioxopiperidin-3-yl)-1,3-dioxoisoindolin-4-yl)-[1,4′-bipiperidin]-4-yl)ethyl)-N-ethyl-N-(2-(4-((6-hydroxy-2-(4-(methylsulfonyl)phenyl)naphthalen-1-yl)oxy)phenoxy)ethyl)benzamide], the inhibition at up to 10 µM turned out to be 45% in the assay on MCF-7; 45% in the assay with TamR-MCF-7; 92% in the assay with MCF-7 ER^D538G; 76% in the assay on MCF-7 ER^Y537S; 57% in the assay on MDA-MB-231; 94% in the assay on MDA-MB-468. In the assay with MCF-7 ER^D538G, the IC50 was found to be 288 nM.

In the case of `CS(=O)(=O)c1ccc(-c2ccc3cc(O)ccc3c2Oc2ccc(OCCNCCCCCNc3cccc4c3C(=O)N(C3CCC(=O)NC3=O)C4=O)cc2)cc1` (centres unmarked) [Compound D60, 2-(2,6-dioxopiperidin-3-yl)-4-((5-((2-(4-((6-hydroxy-2-(4-(methylsulfonyl)phenyl)naphthalen-1-yl)oxy)phenoxy)ethyl)amino)pentyl)amino)isoindoline-1,3-dione], the results for the IC50 with MCF-7 and in the assay on MCF-7 ER^D538G were 954 nM and 977 nM, respectively. Further, the inhibition at up to 10 µM with MCF-7 was 82%; in the assay with TamR-MCF-7, 50%; in the assay on MCF-7 ER^D538G it was 96%; in the assay with MCF-7 ER^Y537S, 92%; with MDA-MB-231, 96%; in the assay on MDA-MB-468, 51%.

`CS(=O)(=O)c1ccc(-c2ccc3cc(O)ccc3c2Oc2ccc(OCCN3CCN(c4ccc5c(c4)C(=O)N(C4CCC(=O)NC4=O)C5=O)CC3)cc2)cc1` (centres unmarked) [Compound D6, 2-(2,6-dioxopiperidin-3-yl)-5-(4-(2-(4-((6-hydroxy-2-(4-(methylsulfonyl)phenyl)naphthalen-1-yl)oxy)phenoxy)ethyl)piperazin-1-yl)isoindoline-1,3-dione]: the IC50 in the assay on MCF-7 amounted to 133 nM; in the assay with TamR-MCF-7 it was 331 nM; with MCF-7 ER^D538G it was 428 nM; in the assay on MDA-MB-231, 102 nM; in the assay on MDA-MB-468, 260 nM. Further, the inhibition at up to 10 µM was found to be 100% in the assay with MCF-7; 90% in the assay with TamR-MCF-7; 91% in the assay on MCF-7 ER^D538G; 78% in the assay on MCF-7 ER^Y537S; 100% in the assay on MDA-MB-231; 98% in the assay with MDA-MB-468.

For the compound `CN(CCOCCN1CCN(c2ccc3c(c2)CN(C2CCC(=O)NC2=O)C3=O)CC1)CCOc1ccc(Oc2c(-c3ccc(S(C)(=O)=O)cc3)ccc3cc(O)ccc23)cc1` (centres unmarked) [Compound D10, 3-(5-(4-(2-(2-((2-(4-((6-hydroxy-2-(4-(methylsulfonyl)phenyl)naphthalen-1-yl)oxy)phenoxy)ethyl)methylamino)ethoxy)ethyl)piperazin-1-yl)-1-oxoisoindolin-2-yl)piperidine-2,6-dione], the inhibition at up to 10 µM stood at 40% in the assay on MCF-7; 36% in the assay with TamR-MCF-7; 67% with MCF-7 ER^D538G; 54% with MCF-7 ER^Y537S; 38% in the assay with MDA-MB-231; 68% with MDA-MB-468.

Take `CCN(CCOCCOCCOc1ccc2c(c1)C(=O)N(C1CCC(=O)NC1=O)C2=O)CCOc1ccc(Oc2c(-c3ccc(S(C)(=O)=O)cc3)ccc3cc(O)ccc23)cc1` (centres unmarked) [Compound D24, 2-(2,6-dioxopiperidin-3-yl)-5-(2-(2-(2-(ethyl(2-(4-((6-hydroxy-2-(4-(methylsulfonyl)phenyl)naphthalen-1-yl)oxy)phenoxy)ethyl)amino)ethoxy)ethoxy)ethoxy)isoindoline-1,3-dione]: the inhibition at up to 10 µM amounted to 74% with MCF-7; 60% in the assay with TamR-MCF-7; 93% in the assay on MCF-7 ER^D538G; 94% with MCF-7 ER^Y537S; 100% with MDA-MB-231; 62% in the assay on MDA-MB-468. Further, the IC50 in the assay on MCF-7 ER^D538G amounted to 448 nM.

For `CCN(CCOCCOCCN1CCN(c2ccc3c(c2)C(=O)N(C2CCC(=O)NC2=O)C3)CC1)CCOc1ccc(Oc2c(-c3ccc(S(C)(=O)=O)cc3)ccc3cc(O)ccc23)cc1` (centres unmarked) [Compound D49], the inhibition at up to 10 µM is 42% in the assay on MCF-7; 42% in the assay on TamR-MCF-7; 96% in the assay with MCF-7 ER^D538G; 86% with MCF-7 ER^Y537S; 97% with MDA-MB-231; 99% with MDA-MB-468. Also, in the assay on MCF-7 ER^D538G, the IC50 is 202 nM.

The values above are taken from US20240131168A1, “NAPHTHALENE RING-CONTAINING COMPOUND, PHARMACEUTICAL COMPOSITION CONTAINING SAME, AND USE THEREOF” (JIANGSU YAHONG MEDITECH CO., LTD., priority 2021, published 2024).
